The assay concerns the target myosin light chain kinase (MLCK) (Homo sapiens, UniProt Q15746). In words: radiometric [γ-33P]ATP kinase assay with peptide substrate KKLNRTLSFAEPG
The format is biochemical.

myosin light chain kinase (MLCK), sequence (Q15746 whole entry): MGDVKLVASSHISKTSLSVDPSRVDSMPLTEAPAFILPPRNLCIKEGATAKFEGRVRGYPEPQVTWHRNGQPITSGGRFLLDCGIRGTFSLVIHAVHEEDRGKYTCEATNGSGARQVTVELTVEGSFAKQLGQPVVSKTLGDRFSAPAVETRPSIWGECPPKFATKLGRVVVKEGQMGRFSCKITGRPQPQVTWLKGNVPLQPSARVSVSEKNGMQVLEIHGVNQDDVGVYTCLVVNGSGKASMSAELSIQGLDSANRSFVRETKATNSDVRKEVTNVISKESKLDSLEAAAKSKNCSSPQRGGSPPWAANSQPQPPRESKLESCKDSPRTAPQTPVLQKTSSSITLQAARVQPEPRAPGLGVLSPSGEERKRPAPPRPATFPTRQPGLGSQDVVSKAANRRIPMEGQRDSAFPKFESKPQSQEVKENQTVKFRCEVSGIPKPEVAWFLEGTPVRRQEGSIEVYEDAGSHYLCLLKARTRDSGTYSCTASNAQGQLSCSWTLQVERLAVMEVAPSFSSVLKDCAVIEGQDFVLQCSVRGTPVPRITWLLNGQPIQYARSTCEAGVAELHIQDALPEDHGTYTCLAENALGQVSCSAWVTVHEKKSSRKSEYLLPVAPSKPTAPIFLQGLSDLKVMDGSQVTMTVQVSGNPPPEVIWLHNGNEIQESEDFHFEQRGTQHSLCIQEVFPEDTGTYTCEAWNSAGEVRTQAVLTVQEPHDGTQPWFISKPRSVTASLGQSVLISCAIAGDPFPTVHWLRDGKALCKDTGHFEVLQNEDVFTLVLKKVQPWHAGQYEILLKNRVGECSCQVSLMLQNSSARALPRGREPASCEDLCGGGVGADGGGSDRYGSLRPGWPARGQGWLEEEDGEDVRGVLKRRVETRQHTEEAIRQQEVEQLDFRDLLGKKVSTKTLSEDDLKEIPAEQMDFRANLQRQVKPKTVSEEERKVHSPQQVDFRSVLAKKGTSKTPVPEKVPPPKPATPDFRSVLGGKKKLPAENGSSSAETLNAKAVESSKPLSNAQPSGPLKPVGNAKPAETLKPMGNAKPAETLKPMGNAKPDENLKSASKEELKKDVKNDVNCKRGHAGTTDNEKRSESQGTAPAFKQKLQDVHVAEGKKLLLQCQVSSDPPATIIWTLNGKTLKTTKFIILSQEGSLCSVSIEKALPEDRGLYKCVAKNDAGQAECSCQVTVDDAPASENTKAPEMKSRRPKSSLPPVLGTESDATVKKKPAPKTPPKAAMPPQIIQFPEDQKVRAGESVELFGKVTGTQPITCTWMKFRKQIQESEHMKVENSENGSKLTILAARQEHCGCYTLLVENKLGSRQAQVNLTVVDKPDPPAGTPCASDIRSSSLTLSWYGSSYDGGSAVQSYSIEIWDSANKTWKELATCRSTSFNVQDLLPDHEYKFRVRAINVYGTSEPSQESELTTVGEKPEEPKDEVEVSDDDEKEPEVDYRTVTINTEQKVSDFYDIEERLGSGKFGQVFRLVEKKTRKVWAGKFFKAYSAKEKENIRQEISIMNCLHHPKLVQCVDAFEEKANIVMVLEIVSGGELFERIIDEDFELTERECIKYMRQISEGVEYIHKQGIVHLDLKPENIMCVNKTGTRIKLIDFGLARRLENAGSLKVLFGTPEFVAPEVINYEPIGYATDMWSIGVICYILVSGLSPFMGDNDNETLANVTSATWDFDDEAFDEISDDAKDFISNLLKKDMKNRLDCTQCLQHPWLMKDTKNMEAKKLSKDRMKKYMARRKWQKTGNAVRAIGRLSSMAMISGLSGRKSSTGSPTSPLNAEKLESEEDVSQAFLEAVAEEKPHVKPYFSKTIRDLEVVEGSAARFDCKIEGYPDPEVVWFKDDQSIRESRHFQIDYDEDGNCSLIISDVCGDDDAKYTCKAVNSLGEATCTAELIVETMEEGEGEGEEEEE

Molecule `CNCc1ccc(-c2[nH]c3cc(F)cc4c3c2CCNC4=O)cc1` [AG014699] displayed an IC50 of 55 µM. This lies in the double-digit micromolar range.

Usually IC50 stands for the point on the concentration scale where inhibition reaches its midpoint.

(Values after PMC2756456 (Clinical cancer research : an official journal of the …, 2009).)
